Target: neuraminidase (NA) (Influenza A virus, UniProt Q6DPL2)
Format: biochemical
Details: for Inhibition Rate (%): 100 μg/mL standard compounds; for IC50: standard compounds

Sequence of neuraminidase (NA) (Q6DPL2 whole entry, looked up): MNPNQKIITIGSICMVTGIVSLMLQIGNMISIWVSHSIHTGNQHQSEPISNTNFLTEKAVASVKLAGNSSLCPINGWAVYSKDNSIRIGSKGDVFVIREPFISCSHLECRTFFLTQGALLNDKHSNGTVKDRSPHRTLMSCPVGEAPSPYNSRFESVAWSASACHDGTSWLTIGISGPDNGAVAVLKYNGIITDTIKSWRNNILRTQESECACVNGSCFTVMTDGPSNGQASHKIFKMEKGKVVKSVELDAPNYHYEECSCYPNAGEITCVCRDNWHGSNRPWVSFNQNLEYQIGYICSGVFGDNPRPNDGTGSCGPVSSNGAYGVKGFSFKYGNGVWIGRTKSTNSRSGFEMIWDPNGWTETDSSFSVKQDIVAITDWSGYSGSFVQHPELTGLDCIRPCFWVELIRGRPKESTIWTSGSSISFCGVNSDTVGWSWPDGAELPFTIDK

Row | Structure (SMILES) | Inhibition Rate (%) | IC50
1 | O=C(/C=C/c1ccc(O)c(O)c1)O[C@@H]1[C@H](O)C[C@@](O)(C(=O)O)C[C@H]1OC(=O)/C=C/c1ccc(O)c(O)c1 [4,5-Di-O-caffeoylquinic acid] | 75.90% | 132 µM
2 | O=C(/C=C/c1ccc(O)c(O)c1)O[C@H]1[C@H](O)C[C@](O)(C(=O)O)C[C@H]1O [Cryptochlorogenic acid, cryptochlorogenic acid] | 54.89% | 290 µM
3 | O=C(/C=C/c1ccc(O)c(O)c1)O[C@@H]1C[C@@](O)(C(=O)O)C[C@@H](O)[C@@H]1O [Neochlorogenic acid, neochlorogenic acid] | 76.00% | 157 µM
4 | C=C[C@H]1[C@H](O[C@@H]2O[C@H](CO)[C@@H](O)[C@H](O)[C@H]2O)OC=C(C(=O)OC)[C@H]1CC(=O)O [Secoxyloganin, secoxyloganin] | 37.74% | –
